Common to all, as to format: cell-based
One assay concerns the target T1, FGFR2 V564F (Homo sapiens, UniProt P21802, V564F).
T1 construct: P41212 (Transcription factor ETV6)
In words: Cell proliferation assay for Tel-FGFR2 V564F in BaF3. Conditions: BaF3 cells expressing FGFR2 V564F fusion, 48 hrs, CellTiter Glo. As for the experimental part: (§1) By transfection, cell strains of the intracellular kinase domain fusion protein of TEL-FGFR2 WT or the intracellular domain fusion proteins containing FGFR2 V564, V564F, V564L, N549K and K659M mutations were stably expressed in Baf cells. On day 1, the cell suspension was plated into a 96-well plate containing growth medium (DMEM containing 1% Glutamax, 10% FBS and 1% Pen/Strep) at 2000-4000 cells/90 μL/per well, and then the mixture was incubated overnight at 37° C. and 5% CO2. On day 2, 10 μL of growth medium containing a 10-fold stock solution of test compound was added to the cell culture (9 dose points, 3× serial dilution, starting from 1 μM, finally 0.3% DMSO). After incubation at 37° C. and 5% CO2 for 48 hrs, 50 μL of CellTiter Glo (CTG) reagent was added to the cell-containing 96-well plate on day 3, and the plate was then incubated at room temperature for 10 min. Then relative light units (RLUs) were measured on a microplate reader with a luminescence detection module. RLU values were normalized to % survival, and concentration-response curves were plotted using Prism to calculate IC50 (nM).
In general terms: Cellular ATP, detected with luciferase, serves as a proxy for viable cell number.

A further assay has as its target T2, FGFR2 V564L (Homo sapiens, UniProt P21802, V564L).
T2 construct: P41212 (Transcription factor ETV6)
In words: Cell proliferation assay for Tel-FGFR2 V564L in BaF3. Conditions: BaF3 cells expressing FGFR2 V564L fusion, 48 hrs, CellTiter Glo. As for the experimental part:
as §1

The target of a further assay is T3, FGFR3 V555M (Homo sapiens, UniProt P22607, V555M).
T3 construct: P41212 (Transcription factor ETV6)
T3 sequence (P22607 472-761 V555M limits assumed): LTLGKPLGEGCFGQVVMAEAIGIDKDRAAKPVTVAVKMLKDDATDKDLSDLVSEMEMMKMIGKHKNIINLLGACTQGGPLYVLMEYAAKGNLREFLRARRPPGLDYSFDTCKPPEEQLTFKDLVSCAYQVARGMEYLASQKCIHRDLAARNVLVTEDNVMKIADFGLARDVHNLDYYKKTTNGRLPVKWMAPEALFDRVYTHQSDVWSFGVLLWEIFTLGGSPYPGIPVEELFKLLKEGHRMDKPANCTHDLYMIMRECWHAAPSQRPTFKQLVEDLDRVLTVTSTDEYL
Nature of the assay: Cell proliferation assay for FGFR3 V555M in BaF3. The following applies: BaF3 cells expressing FGFR3 V555M fusion, 48 hrs, CellTiter Glo. As for the experimental part:
For the compounds of the Examples of the present invention, cell strains of TEL-FGFR3 WT intracellular kinase domain fusion protein or intracellular domain fusion protein containing FGFR3 V555M or FGFR3 N540K mutation were stably expressed in Baf cells by transfection and were used to determine the cell proliferation effect of BaF3-Tel-FGFR3 WT. FGFR3 V555M or FGFR3 N540K. The specific test process was as follows: • 1) The cell suspension was plated into a 96-well plate containing growth medium (DMEM containing 1% Glutamax, 10% FBS and 1% Pen/Strep) at 2000-4000 cells/90 μL/per well, and then the mixture was incubated overnight at 37° C. and 5% CO2. • 2) 10 μL of growth medium containing a 10-fold stock solution of test compound was added to the cell culture (9 dose points, 3× serial dilution, starting from 1 μM, finally 0.3% DMSO). • 3) The mixture was incubated at 37° C. and 5% CO2 for 48 hrs. • 4) 50 μL of CellTiter Glo (CTG) reagent was added to the cell-containing 96-well plate, and the plate was then incubated at room temperature for 10 min. • 5) Relative light units (RLUs) were measured on a microplate reader with a luminescence detection module. RLU values were normalized to % survival, and concentration-response curves were plotted using Prism to calculate IC50 (nM).

In a further assay the target is T4, FGFR2 N549K (Homo sapiens, UniProt P21802, N549K).
T4 construct: P41212 (Transcription factor ETV6)
T4 sequence (P21802 481-770 N549K limits assumed): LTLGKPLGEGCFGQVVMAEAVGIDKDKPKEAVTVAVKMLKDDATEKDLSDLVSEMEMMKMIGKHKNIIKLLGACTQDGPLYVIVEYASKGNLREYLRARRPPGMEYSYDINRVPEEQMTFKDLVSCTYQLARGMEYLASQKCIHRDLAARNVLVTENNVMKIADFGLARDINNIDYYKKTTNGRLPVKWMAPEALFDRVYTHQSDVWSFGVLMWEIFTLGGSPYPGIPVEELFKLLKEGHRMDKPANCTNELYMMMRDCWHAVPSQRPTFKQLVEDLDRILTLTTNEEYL
In words: Cell proliferation assay for Tel-FGFR2 N549K in BaF3. Conditions: BaF3 cells expressing FGFR2 N549K fusion, 48 hrs, CellTiter Glo. As for the experimental part: as §1

T1 sequence (P21802 481-770 V564F limits assumed): as the sequence (P21802 481-770 N549K limits assumed) above, with K69N, V84F counted along it
T2 sequence (P21802 481-770 V564L limits assumed): as the sequence (P21802 481-770 N549K limits assumed) above, with K69N, V84L counted along it

Broadly, the IC50 is the concentration that gives 50% inhibition. In the case of `C=CC(=O)N1CC[C@H](n2cc(C#Cc3ccc4oc(C(F)F)nc4c3)c3c(N)ncnc32)C1` [Example 71, (S)-1-(3-(4-amino-5-((2-(difluoromethyl)benzo[d]oxazol-5-yl)ethynyl)-7H-pyrrolo[2,3-d]pyrimidin-7-yl)pyrrolidin-1-yl)prop-2-en-1-one], the IC50 against FGFR2 V564F was 0.5 to 5 nM; against FGFR2 V564L, 5 to 50 nM; on FGFR3 V555M, 5 to 50 nM; against FGFR2 N549K, 0.5 to 5 nM.

Consider `C=CC(=O)N1CC[C@H](n2nc(C#Cc3cc4nc(C5CCC5)oc4cc3F)c3c(N)ncnc32)C1` [Example 38, (S)-1-(3-(4-amino-3-((2-cyclobutyl-6-fluorobenzo [d]oxazol-5-yl)ethynyl)-1 H-pyrazolo[3,4-d]pyrimidin-1-yl)pyrrolidin-1-yl) prop-2-en-1-one], for which the IC50 against FGFR2 V564F was 0.5 to 5 nM; against FGFR3 V555M it was 5 to 50 nM.

Regarding `C=CC(=O)N1CCC(c2cc(C#Cc3ccc4oc(C5CC5)nc4c3)c3c(N)ncnn23)C1` (stereo not drawn) [Example 63, 1-(3-(4-amino-5-((2-cyclo-propylbenzo[d]oxazol-5-yl)ethynyl)pyrrolo[2,1-f][1,2,4]triazin-7-yl)pyrrolidin-1-yl)prop-2-en-1-one], the IC50 on FGFR2 V564F lay within 0.5 to 5 nM; at FGFR3 V555M it was 5 to 50 nM.

Take `C=CC(=O)N1CC[C@H](n2nc(C#Cc3cc4nc(C5CC5)oc4cc3F)c3c(N)ncnc32)C1` [Example 35, (S)-1-(3-(4-amino-3-((2-cyclopropyl-6-fluorobenzo [d]oxazol-5-yl)ethynyl)-1H-pyrazolo[3,4-d]pyrimidin-1-yl)pyrrolidin-1-yl) prop-2-en-1-one]: the IC50 at FGFR2 V564F is at most 0.5 nM; against FGFR3 V555M, 0.5 to 5 nM.

With `C=CC(=O)N1CC[C@H](n2cc(C#Cc3cc4nc(C)sc4cc3F)c3c(N)ncnc32)C1` [Example 47, (S)-1-(3-(4-amino-5-((6-fluoro-2-methylbenzo[d]thiazol-5-yl)ethynyl)-7H-pyrrolo[2,3-d]pyrimidin-7-yl)pyrrolidin-1-yl)prop-2-en-1-one], the half-maximal inhibitory concentration (IC50) against FGFR2 V564F is at most 0.5 nM; on FGFR3 V555M it was 5 to 50 nM.

Consider `C=CC(=O)N1CC[C@H](n2cc(C#Cc3cc4nc(C(F)F)sc4cc3F)c3c(N)ncnc32)C1` [Example 50, (S)-1-(3-(4-amino-5-((2-(difluoromethyl)-6-fluoro-benzo[d]thiazol-5-yl)ethynyl)-7H-pyrrolo[2,3-d]pyrimidin-7-yl)pyrrolidin-1-yl) prop-2-en-1-one], for which the concentration for half-maximal inhibition (IC50) against FGFR2 V564F was in the range of 0.5 to 5 nM; on FGFR3 V555M it was 5 to 50 nM.

Consider `C=CC(=O)N1CC[C@H](n2cc(C#Cc3ccc4oc(NC)nc4c3)c3c(N)ncnc32)C1` [Example 7, (S)-1-(3-(4-amino-5-((2-(methylamino)benzo[d]oxazol-5-yl)ethynyl)-7H-pyrrolo[2,3-d]pyrimidin-7-yl)pyrrolidin-1-yl)prop-2-en-1-one], for which the IC50 against FGFR2 V564F was in the range of 0.5 to 5 nM; at FGFR2 V564L, 5 to 50 nM; against FGFR3 V555M it was 5 to 50 nM; against FGFR2 N549K, 5 to 50 nM.

With `C=CC(=O)N1CC[C@H](n2nc(C#Cc3ccc4sc(C5CC5)nc4c3)c3c(N)ncnc32)C1` [Example 54, (S)-1-(3-(4-amino-3-((2-cyclopropylbenzo[d]thiazol-5-yl)ethynyl)-1H-pyrazolo [3,4-d]pyrimidin-1-yl)pyrrolidin-1-yl)prop-2-en-1-one], the IC50 on FGFR2 V564F was in the range of 0.5 to 5 nM; against FGFR2 V564L, 0.5 to 5 nM; against FGFR3 V555M it was 5 to 50 nM; at FGFR2 N549K it was 0.5 to 5 nM.

Regarding `C=CC(=O)N1CC[C@H](n2nc(C#Cc3ccc4sc(C)nc4c3)c3c(N)ncnc32)C1` [Example 52, (S)-1-(3-(4-amino-3-((2-methylbenzo[d]thiazol-5-yl)ethynyl)-1H-pyrazolo [3,4-d]pyrimidin-1-yl)pyrrolidin-1-yl)prop-2-en-1-one], the IC50 is 0.5 to 5 nM on FGFR2 V564F, 5 to 50 nM on FGFR2 V564L, 5 to 50 nM on FGFR3 V555M and 5 to 50 nM on FGFR2 N549K.

Turning to `C=CC(=O)N1CC[C@H](n2nc(C#Cc3cnc4sc(C)nc4c3)c3c(N)ncnc32)C1` [Example 41, (S)-1-(3-(4-amino-3-((2-methylthiazolo[5,4-6]pyridin-6-yl)ethynyl)-1H-pyrazolo [3,4-d]pyrimidin-1-yl)pyrrolidin-1-yl)prop-2-en-1-one], the half-maximal inhibitory concentration (IC50) against FGFR2 V564F lay within 5 to 50 nM; at FGFR2 V564L, 0.5 to 5 nM; at FGFR3 V555M it was 50 to 500 nM; against FGFR2 N549K, 5 to 50 nM.

As to `C=CC(=O)N1CC[C@H](n2nc(C#Cc3cc4nc(NC5CC5)oc4cc3F)c3c(N)ncnc32)C1` [Example 33, (S)-1-(3-(4-amino-3-((2-(cyclopropylamino)-6-fluorobenzo[d]oxazol-5-yl)ethynyl)-1H-pyrazolo[3,4-d]pyrimidin-1-yl)pyrrolidin-1-yl)prop-2-en-1-one], the IC50 against FGFR2 V564F lay within 0.5 to 5 nM; against FGFR3 V555M, 50 to 500 nM.

Regarding `C=CC(=O)N1CC[C@H](n2nc(C#Cc3cc4nc(NCC)oc4cc3F)c3c(N)ncnc32)C1` [Example 30, (S)-1-(3-(4-amino-3-((2-(ethylamino)-6-fluorobenzo [d]oxazol-5-yl)ethynyl)-1H-pyrazolo[3,4-d]pyrimidin-1-yl)pyrrolidin-1-yl) prop-2-en-1-one], the figures for the IC50 against FGFR2 V564F and against FGFR3 V555M were 0.5 to 5 nM and 5 to 50 nM, respectively.

On to `C=CC(=O)N1CC[C@H](n2nc(C#Cc3ccc4sc(C(F)F)nc4c3)c3c(N)ncnc32)C1` [Example 55, (S)-1-(3-(4-amino-3-((2-(difluoromethyl)benzo[d]thiazol-5-yl)ethynyl)-1H-pyrazolo[3,4-d]pyrimidin-1-yl)pyrrolidin-1-yl)prop-2-en-1-one], for which the IC50 was 5 to 50 nM against FGFR2 V564F, 5 to 50 nM against FGFR2 V564L, 5 to 50 nM at FGFR3 V555M and 0.5 to 5 nM at FGFR2 N549K.

Take `C=CC(=O)N1CC[C@H](n2cc(C#Cc3ccc4oc(CC)nc4c3)c3c(N)ncnc32)C1` [Example 3, (S)-1-(3-(4-amino-5-((2-ethylbenzo[d]oxazol-5-yl)ethynyl)-7H-pyrrolo[2,3-d]pyrimidin-7-yl)pyrrolidin-1-yl)prop-2-en-1-one]: the IC50 is 0.5 to 5 nM on FGFR2 V564F, 0.5 to 5 nM on FGFR2 V564L, 5 to 50 nM against FGFR3 V555M and 0.5 to 5 nM against FGFR2 N549K.

Turning to `C=CC(=O)N1CC[C@H](n2cc(C#Cc3ccc4sc(C(F)F)nc4c3)c3c(N)ncnc32)C1` [Example 45, (S)-1-(3-(4-amino-5-((2-(difluoromethyl)benzo[d]thiazol-5-yl)ethynyl)-7H-pyrrolo[2,3-d]pyrimidin-7-yl)pyrrolidin-1-yl)prop-2-en-1-one], the half-inhibitory concentration (IC50) is 0.5 to 5 nM at FGFR2 V564F, 0.5 to 5 nM at FGFR2 V564L, 5 to 50 nM against FGFR3 V555M and 0.5 to 5 nM at FGFR2 N549K.

Take `C=CC(=O)N1CC[C@H](n2nc(C#Cc3cc4nc(N(C)C)oc4cc3F)c3c(N)ncnc32)C1` [Example 31, (S)-1-(3-(4-amino-3-((2-(dimethylamino)-6-fluoro-benzo[d]oxazol-5-yl)ethynyl)-1H-pyrazolo[3,4-d]pyrimidin-1-yl)pyrrolidin-1-yl)prop-2-en-1-one]: the concentration for half-maximal inhibition (IC50) on FGFR2 V564F lay in the range of 0.5 to 5 nM; against FGFR3 V555M, 5 to 50 nM.

For the molecule `C=CC(=O)N1CC[C@H](n2cc(C#Cc3ccc4oc(C)nc4c3)c3c(N)ncnc32)C1` [Example 2, (S)-1-(3-(4-amino-5-((2-methylbenzo[d]oxazol-5-yl)ethynyl)-7H-pyrrolo[2,3-d]pyrimidin-7-yl)pyrrolidin-1-yl)prop-2-en-1-one], the half-inhibitory concentration (IC50) was at most 0.5 nM on FGFR2 V564F, 0.5 to 5 nM on FGFR2 V564L, 5 to 50 nM at FGFR3 V555M and 0.5 to 5 nM at FGFR2 N549K.

Turning to `C=CC(=O)N1CC[C@H](n2nc(C#Cc3cc4nc(N5CCC5)oc4cc3F)c3c(N)ncnc32)C1` [Example 34, (S)-1-(3-(4-amino-3-((2-(azetidin-1-yl)-6-fluorobenzo [d]oxazol-5-yl)ethynyl)-1H-pyrazolo[3,4-d]pyrimidin-1-yl)pyrrolidin-1-yl) prop-2-en-1-one], the 50% inhibitory concentration (IC50) on FGFR2 V564F and at FGFR3 V555M was 0.5 to 5 nM in each case.

For the origin of these results see patent US20230303575A1, “FGFR AND MUTATION INHIBITOR THEREOF, PREPARATION METHOD THEREFOR AND USE THEREOF” (Abbisko Therapeutics Co., Ltd., priority 2020, published 2023).
